What all share (test): growth of human tumour cells (NCI), 48 h
Test [1] deals with MALME-3M melanoma.
The test system of test [2] is HOP-92 NSCLC.
Test [3] deals with EKVX NSCLC.
The test system of test [4] is MOLT-4 leukemia.
Test [5] relates to BT-549 breast.
Test [6] has as its system UACC-62 melanoma.
Test [7] concerns SW-620 colon.
For test [8], the system named is KM12 colon.
In test [9] the test system is HCT-15 colon.
The test system of test [10] is COLO 205 colon.

Our source for the GI50 and TGI values is PubChem BioAssay (NCI).

Values joined by “and” are separate entries in the source; they are usually repeats but may differ in a detail not shown here. Identical values can stand only once.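 Cells were grown in 96-well plates and exposed to each compound for 48 hours at five concentrations; endpoints were interpolated linearly between bracketing concentrations, or set to the highest concentration if not reached. At the GI50, growth is halved. TGI denotes the concentration required for complete inhibition of growth.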

Consider `CC(=O)OC1Oc2ccccc2-c2oc(=O)c(-c3cc4ccc(N(C)C)cc4oc3=O)cc21` (configuration not stated), for which the GI50 in [1] was 3.7 µM; in test [2] it was 4.8 µM; in [3], 1.78 µM; in test [4], 2.53 µM; in test [5], 3.67 µM; in test [6], 14.3 µM. Further, the GI50 in test [7] is 20.6 µM; in test [8] it was 13.7 µM; in test [9], 24.3 µM; in test [10] it was 16.4 µM. For the same compound, the TGI in [1] was 11.1 µM; in test [2] it was 23.3 µM; in [3], 22.2 µM; in [4] it was 18.1 µM; in test [5] it was 20.7 µM; in [6], 29.5 µM. The TGI is over 100 µM in test [7], 30.6 µM in test [8], over 100 µM in [9] and 41.5 µM in test [10].
As for `CCC1(O)C(=O)OCc2c1cc1n(c2=O)Cc2cc3ccc(C=O)cc3nc2-1` (configuration not stated), the GI50 in [1] was 13.2 µM; in [3], 15.1 µM; in [4], 0.209 µM; in test [5], 4.56 µM; in [6], 0.77 µM; in test [8], 4.83 µM. For the same compound, in test [10], the GI50 was 5.77 µM. The TGI was 50 µM and 41.2 µM in test [1]; 42 µM and 84.4 µM in test [2]; 50 µM and > 100 µM in test [3]; 1.78 µM and 1.05 µM in [4]; 29.8 µM and 59.6 µM in test [5]; 3.44 µM and 3.71 µM in [6]. Also, the TGI in test [7] was 50 µM and > 100 µM; in test [8], 29.7 µM and > 100 µM; in test [9] it was 40.2 µM and > 62.4 µM; in [10], 12.5 µM and 31.3 µM.
For `CCCCN=C(N)c1ccc(OCCSCCOc2ccc(C(N)=NCCCC)cc2)cc1`, the GI50 in test [1] was 2.97 µM; in test [2] it was 1.44 µM; in test [3], 0.96 µM; in test [4], 20.9 µM; in test [5], 1.97 µM; in test [6], 6.12 µM. Also, the GI50 in test [7] was 10.2 µM; in [8] it was 3.62 µM; in test [9] it was over 100 µM; in test [10], 3.1 µM. The TGI in test [1] was 26.4 µM; in test [2], 14.6 µM; in test [3] it was over 100 µM; in [4] it was over 100 µM; in test [5], 13.3 µM; in test [6], over 100 µM. Moreover, the TGI in test [7] is over 100 µM; in test [8], 19.9 µM; in test [9], over 100 µM; in [10], 15 µM.
In the case of `COc1ccc(C(=O)COc2cccc(/C=C3\COc4ccc5ccccc5c4C3=O)c2)cc1`, the GI50 in test [1] is 10.2 µM; in test [2], 0.786 µM; in test [3] it was 4.26 µM; in test [4], 2.86 µM; in [5], 8.44 µM; in test [6], 16.3 µM. Moreover, the GI50 in test [7] is 3.33 µM; in test [8] it was 3.11 µM; in [9] it was 7.59 µM; in test [10] it was 16.9 µM. The TGI was over 100 µM in test [1]; 8.14 µM in test [2]; over 100 µM in [3]; 18.9 µM in test [4]; over 100 µM in test [5]; over 100 µM in test [6]. The TGI in test [7] is 13.7 µM; in [8] it was 24.6 µM; in test [9], over 100 µM; in test [10], over 100 µM.
In the case of `CN(C)CCCn1c2c(c3ccccc3c1=O)C(=O)c1ccccc1-2`, the GI50 in test [1] was 2.31 µM; in test [2], 0.421 µM; in test [3], 11.3 µM; in [4] it was 0.276 µM; in test [5] it was 5.53 µM; in test [6], 0.516 µM. Besides, the GI50 in [7] was 0.771 µM; in [8], 3.6 µM; in [9] it was 1.85 µM; in [10] it was 7.52 µM. In addition, the TGI was found to be 5.71 µM in [1]; 5.59 µM in [2]; 36.8 µM in test [3]; 0.746 µM in [4]; 19.9 µM in test [5]; 1.96 µM in test [6]. Moreover, the TGI was determined as 10.8 µM in test [7], 17.7 µM in test [8], 12 µM in test [9] and 24.8 µM in test [10].
Regarding `CCOC(=O)c1c(CN2CCN(c3ccccc3)CC2)n(-c2ccccc2)c2cc(Br)c(O)cc12`, the GI50 in [1] was 16.5 µM; in test [2] it was 2.98 µM; in test [3], 11.2 µM; in test [4] it was 3.56 µM; in test [5], 8.64 µM; in test [6], 16.1 µM. Also, the GI50 in [7] is 6.32 µM; in [8] it was 8.49 µM; in test [9], 11.3 µM; in test [10], 21.3 µM. The TGI is 40.1 µM in [1]; 11.7 µM in test [2]; 36.1 µM in [3]; 29.5 µM in [4]; 23.9 µM in test [5]; 29.6 µM in [6]. In addition, the TGI in test [7] worked out at 48 µM; in [8], 39.9 µM; in [9], 38.6 µM; in [10] it was 41.7 µM.
`c1ccc(C2=NNC3c4ccccc4-c4ccccc4N3C2)cc1` (configuration not stated): the TGI in [1] was 83.1 µM; in test [2], over 100 µM; in test [3] it was over 100 µM; in [4], 56.9 µM; in test [5], over 100 µM; in [6], 35.2 µM. Besides, the TGI in test [7] is over 100 µM; in [8] it was over 100 µM; in test [9], over 100 µM; in test [10], 37.3 µM.
Turning to `COc1cc2oc(-c3ccc(O)cc3)cc(=O)c2c(OC)c1OC`, the TGI in test [1], in test [2], in test [3], in test [4], in test [5] and in test [6] was over 100 µM in each case. The TGI in test [7], in test [8], in [9] and in test [10] was over 100 µM each time.
